The text below walks through data of PubChem BioAssay (NCI).

Some test systems named below: RPMI-8226 leukemia; A498 renal; SF-539 CNS; OVCAR-5 ovarian; HL-60(TB) leukemia; HCT-116 colon; ACHN renal; HCC-2998 colon; COLO 205 colon; NCI-H226 lung.
Common to all, as to test: NCI-60 cell line screen, 48 h

Each structure is given as a SMILES string.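 Test compounds were applied to cells in 96-well plates for 48 hours at 5 doses. The concentration for 50% growth inhibition is given as GI50. TGI denotes the concentration required for complete inhibition of growth.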

For `C=C1C[C@@H]2CC[C@@]34C[C@H]5O[C@H]6[C@@H](O3)[C@H]3O[C@H](CC[C@@H]3O[C@H]6[C@@H]5O4)CC(=O)C[C@@H]3[C@@H](OC)[C@@H](C[C@H](O)CN)O[C@H]3C[C@H]3O[C@@H](CC[C@@H]1O2)C[C@@H](C)C3=C`, the GI50 in the assay with RPMI-8226 leukemia is < 0.01 µM; in the assay with A498 renal, < 0.0119 µM; with SF-539 CNS it was < 0.01 µM; with OVCAR-5 ovarian, < 0.01 µM; in the assay on HL-60(TB) leukemia, < 0.01 µM; in the assay with HCT-116 colon it was < 0.01 µM. In addition, the GI50 was 0.158 µM with ACHN renal, < 0.01 µM in the assay on HCC-2998 colon and < 0.01 µM with COLO 205 colon. For the same compound, the TGI is 0.0456 µM in the assay on A498 renal; 0.0166 µM with SF-539 CNS; > 100 µM with OVCAR-5 ovarian; < 0.0145 µM in the assay with HL-60(TB) leukemia; > 100 µM with HCT-116 colon; > 100 µM with ACHN renal. Besides, the results for the TGI in the assay on HCC-2998 colon and in the assay on COLO 205 colon were > 100 µM and 0.0652 µM, respectively.
Turning to `CSC(=NCCc1c[nH]c2ccccc12)NC#N`, the TGI with RPMI-8226 leukemia, in the assay on SF-539 CNS, in the assay on OVCAR-5 ovarian, with HL-60(TB) leukemia, in the assay on HCT-116 colon and in the assay on ACHN renal was > 100 µM each time. Further, the TGI with HCC-2998 colon, in the assay on NCI-H226 lung and in the assay on COLO 205 colon was > 100 µM in each case.
For `CC(C)(C)C(=O)[CH-]C(=O)C(C)(C)C.CC(C)(C)C(=O)[CH-]C(=O)C(C)(C)C.CN(C)c1ccc([O-])cc1.CN(C)c1ccc([O-])cc1.[Ti+4]`, the GI50 was 52.7 µM with RPMI-8226 leukemia; 55.8 µM in the assay on SF-539 CNS; > 100 µM in the assay on OVCAR-5 ovarian; > 100 µM with HL-60(TB) leukemia; > 100 µM in the assay with HCT-116 colon; > 100 µM in the assay with ACHN renal. For the same compound, the GI50 in the assay on HCC-2998 colon, in the assay with NCI-H226 lung and in the assay on COLO 205 colon was > 100 µM throughout. Moreover, the TGI in the assay with RPMI-8226 leukemia, in the assay with SF-539 CNS, in the assay with OVCAR-5 ovarian, with HL-60(TB) leukemia, in the assay on HCT-116 colon and in the assay on ACHN renal was > 100 µM in each case. Also, the TGI with HCC-2998 colon, in the assay with NCI-H226 lung and in the assay on COLO 205 colon was > 100 µM each time.
For the compound `C/C(=N/NC(=O)C[N+](C)(C)C)C(CN(C)C)C(=O)Nc1ccccc1` (stereo not drawn), the TGI in the assay with A498 renal, in the assay with SF-539 CNS, in the assay on OVCAR-5 ovarian, in the assay on HL-60(TB) leukemia, in the assay with HCT-116 colon and in the assay on ACHN renal was > 100 µM throughout. Besides, the TGI in the assay on HCC-2998 colon, in the assay on NCI-H226 lung and in the assay with COLO 205 colon was > 100 µM in each case.
In the case of `O=C(O)c1ccc(C2C(=O)N[C@@H]3CCC[C@H]23)cc1` (stereo partly drawn), the TGI in the assay with RPMI-8226 leukemia, in the assay with A498 renal, in the assay with SF-539 CNS, in the assay on OVCAR-5 ovarian, in the assay with HL-60(TB) leukemia and in the assay on HCT-116 colon was > 100 µM in each case. For the same compound, the TGI in the assay on HCC-2998 colon, in the assay with NCI-H226 lung and in the assay on COLO 205 colon was > 100 µM throughout.
`COc1cnc2c(c1)C(=O)c1c-2n(CCCN2CCN(C)CC2)c(=O)c2cc([N+](=O)[O-])ccc12`: the GI50 with RPMI-8226 leukemia is 0.226 µM; with SF-539 CNS, 0.191 µM; with OVCAR-5 ovarian, 22.1 µM; in the assay with HL-60(TB) leukemia, 0.168 µM; with HCC-2998 colon it was 14.6 µM; with NCI-H226 lung, 13.7 µM. For the same compound, in the assay on COLO 205 colon, the GI50 was 1.64 µM. For the same compound, the TGI with RPMI-8226 leukemia turned out to be 0.917 µM; in the assay on SF-539 CNS, 0.386 µM; with OVCAR-5 ovarian, 46.5 µM; in the assay with HL-60(TB) leukemia, 0.372 µM; in the assay on HCC-2998 colon, 27.7 µM; with NCI-H226 lung, 35.8 µM. Moreover, the TGI in the assay with COLO 205 colon was 3.38 µM.
On to `CCOC(=O)/C(C#N)=C\C=C(/Cl)c1ccc(Cl)cc1`, for which the GI50 is 3.71 µM in the assay with RPMI-8226 leukemia; 32.3 µM in the assay with A498 renal; 11.3 µM in the assay with SF-539 CNS; 29.7 µM in the assay with OVCAR-5 ovarian; 11.2 µM in the assay with HCT-116 colon; 18.3 µM with ACHN renal. Also, the GI50 is 16.1 µM with HCC-2998 colon, 27.4 µM in the assay with NCI-H226 lung and 19.1 µM in the assay with COLO 205 colon. Besides, the TGI was 29.8 µM in the assay on RPMI-8226 leukemia; > 79.3 µM with A498 renal; 33.9 µM in the assay with SF-539 CNS; 59.4 µM in the assay on OVCAR-5 ovarian; 24.3 µM with HCT-116 colon; 32.6 µM in the assay with ACHN renal. The TGI in the assay with HCC-2998 colon was 31.1 µM; with NCI-H226 lung, 83.2 µM; with COLO 205 colon, > 48 µM.
Take `CCCCn1c(-c2ccc(C(=O)O/N=C(\N)c3ccc4c(c3)OCO4)cc2)nc(-c2ccccc2)c1-c1ccccc1`: the GI50 in the assay with A498 renal was 0.306 µM; with SF-539 CNS it was 3 µM; in the assay on OVCAR-5 ovarian, 4.77 µM; with HL-60(TB) leukemia, 0.603 µM; in the assay with HCT-116 colon it was 1.7 µM; with ACHN renal, 1.35 µM. For the same compound, the GI50 is 3.13 µM with HCC-2998 colon, 3.93 µM in the assay on NCI-H226 lung and 2.69 µM in the assay on COLO 205 colon. Also, the TGI is 2.82 µM in the assay with A498 renal; 10.2 µM in the assay with SF-539 CNS; > 100 µM in the assay with OVCAR-5 ovarian; 2.75 µM in the assay on HL-60(TB) leukemia; 3.66 µM in the assay on HCT-116 colon; 2.81 µM with ACHN renal. Further, the TGI was 22.5 µM in the assay with HCC-2998 colon, > 100 µM in the assay with NCI-H226 lung and 11 µM in the assay on COLO 205 colon.
Consider `CCCCN(CCCC)C(=O)/C(CC(=O)c1cccc2ccccc12)=N\NC(=O)c1cc2ccccc2cc1O`, for which the TGI in the assay with RPMI-8226 leukemia stood at 21.5 µM; in the assay with OVCAR-5 ovarian it was 80.5 µM; with HL-60(TB) leukemia it was 16.5 µM; with HCT-116 colon, 28 µM; in the assay on ACHN renal it was 78.7 µM; in the assay with HCC-2998 colon, 43.8 µM. Also, the TGI came out at 44.7 µM in the assay with NCI-H226 lung and 56.3 µM with COLO 205 colon.
Turning to `Cc1c(C(=O)O)oc2ccc([N+](=O)[O-])cc12`, the TGI in the assay with A498 renal, in the assay with SF-539 CNS, with OVCAR-5 ovarian, in the assay on HL-60(TB) leukemia, in the assay on HCT-116 colon and with ACHN renal was > 100 µM throughout. The TGI in the assay with HCC-2998 colon and in the assay on COLO 205 colon was > 100 µM each time.
